In brackets after ≈: the same amount, converted by molar mass.
Key:
[1] = Pharmacokinetics (PK) determination in SD rats (Experiment 4); assay type: in vivo; conditions: plasma; for Cl_obs / Vz_obs / t1/2z / λ_z: IV 2 mg/kg; for AUC(0-t) / AUC(0-inf): Sprague-Dawley (SD), rat, iv, 2 mg/kg; for AUC(0-inf): read-out: AUCINF_obs
Method: The compound of the present invention, self-prepared and dissolved in a suitable solvent.
Instrument and equipment: API4000 LC-MS/MS
Chromatographic column: Waters XBridge C18(2.1×50 mm, […])
Rat blood collection: Animals were fixed. The animal's tail was heated with a water bathtub 10 minutes before each time point. About 200 μL of the blood was collected through the caudal vein. After the blood collection, the blood was placed in an anticoagulation tube containing heparin sodium. The blood samples were centrifuged at 8000 rpm for 6 minutes at 4° C. to obtain plasma samples. The plasma must be prepared within 30 minutes after the blood collection. The plasma was stored in a refrigerator at −80° C. before the test.
(1) Test samples were removed from the refrigerator (−80° C.), naturally thawed at room temperature, and then vortexed for 5 minutes;
(2) 20 μL sample was precisely pipetted to a 1.5 mL centrifuge tube;
(3) 200 μL of the internal standard solution was added;
(4) The mixture was vortexed for 5 minutes and centrifuged for 5 minutes (12000 revolutions per minute);
(5) 100 μL of the supernate was precisely pipetted, 100 μL of water was added, the mixture was vortexed for 5 minutes, and the sample was sent to LC-MS/MS for analysis.
The results of the concentrations of the test samples (plasma samples) were output with Analyst 1.6.1 of AB Corporation. The meaning value, the standard deviation, the coefficient of variation, and other parameters (not necessary to calculate the parameter that can be directly output from Analyst 1.6.1) were calculated with Microsoft Excel, and the PK parameter is calculated with Pharsight Phoenix 6.1 software.

Pseudomonas aeruginosa = test: In vitro antibacterial activity, agar dilution MIC (Experiment 1); assay type: cell-based; conditions: agar dilution (Table 3); for MIC50: read-out: MIC50; for MIC90: read-out: MIC90
Method: (§1) Tested strains: all the clinically separated strains below were purchased from public facilities.
(§2) Escherichia coli ATCC25922, Pseudomonas aeruginosa ATCC27853, Klebsiella pneumoniae ATCC700603, and the like.
(§3) Tested Samples: Imipenem, Ceftazidime: Commercial Products, the Following Experiments were Carried Out According to the Content of an Effective Ingredient in Each Commercial Product;
(§4) The compounds of the present invention, their chemical names, and preparation methods are shown in the preparation example of each compound.
(§5) Experiment method: Agar dilution method, refer to National Committee for Clinical Laboratory Standards. 2006. Methods for Dilution Antimicrobial Susceptibility Tests for Bacteria That Grow Aerobically; Approved Standard—Seventh Edition M7-A7, Vol 26, No. 2, 2006, to determine the MIC of the compound. MIC represents the minimum inhibitory concentration.

Escherichia coli = test: as above; assay type: cell-based; conditions: agar dilution
Method: as §1, §2, §3, §4, §5

[2] = test system: polymyxin-resistant mcr-1 positive Enterobacteriaceae; test: In vitro antibacterial effect on polymyxin-resistant mcr-1 positive Enterobacteriaceae, agar dilution MIC (Experiment 2); assay type: cell-based, Escherichia coli; conditions: for MIC50 / MIC90: Escherichia coli; for MIC50: read-out: MIC50 Value, polymyxin-resistant mcr-1 positive Escherichia coli, agar dilution; for MIC90: read-out: MIC90 Value, polymyxin-resistant mcr-1 positive Escherichia coli, agar dilution; for MIC50 Value / MIC90 Value: polymyxin-resistant mcr-1 positive Escherichia coli, agar dilution
Method: Tested samples: the compounds of the present invention, prepared according to the methods of the preparation examples;
Polymyxin E sulphate, Ampicillin, Cefotaxime, Gentamicin, Ciprofloxacin, Tetracycline, and Bactrim were all commercial products, the following experiments were carried out according to the content of an effective ingredient in each commercial product.
Tested strains: Escherichia coli carrying mcr-1 gene isolated from animals and Escherichia coli ATCC25922, a quality control strain, were provided by South China Agricultural University.
With reference to the agar dilution method in CLSI, the MIC value of the tested drugs to the polymyxin resistant mcr-1 positive Escherichia coli were determined.
Preparation of drug-containing agar plates: a drug solution with the highest concentration was prepared for each compound; the drug solution with the highest concentration was subjected to the double dilution; for each of dilution gradient, 1 mL (20×drug working solution) of the drug solution was added to 19 mL MH agar at 45-50° C.; immediately after addition, the agar and the drug solution were uniformly mixed to give a drug-containing agar plate with final concentrations of […], and the plate was solidified for later use; and in the meanwhile, a growth control group was arranged.
Inoculum preparation and culture: the strains stored at −80° C. were rejuvenated and formulated with broth so that the turbidity reached or exceeded 0.5 #McFarland unit; a 96-well plate was used as the inoculation tank, and the bacterial solution was diluted with sodium chloride injection so that the content of bacteria inoculated on the agar was 10^4 CFU/point. A multi-point inoculation instrument was used to inoculate the bacterial solution to the surface of the labeled drug-containing agar. After the water in the inoculation point was completely absorbed by the agar, the plate was placed upside down in a 37° C. constant-temperature incubator and incubated for 16-20 hours.

Cl_obs [1] [mL/min/kg]	Vz_obs [1] [L/kg]	t1/2z [1] [min]	λ_z [1] [h⁻¹]	AUC(0-t) [1] [ng·h/mL]	AUC(0-inf) [1] [ng·h/mL]	MIC50 (Pseudomonas aeruginosa) [µg/mL]	MIC90 (Pseudomonas aeruginosa) [µg/mL]	MIC50 (Escherichia coli; read-out: MIC50) [µg/mL]	MIC90 (Escherichia coli; read-out: MIC90) [µg/mL]	Compound	MIC50 [2] [µg/mL]	MIC90 [2] [µg/mL]	MIC50 Value [2] [µg/mL]	MIC90 Value [2] [µg/mL]
24.2 ± 4.83	0.33 ± 0.07	9.6 ± 0.6	4.38 ± 0.25	1400 ± 256	1420 ± 255	1 (≈ 2.13 µM)	4 (≈ 8.5 µM)			C[C@@H](O)[C@H](NC(=O)c1ccc(C#CC#Cc2ccc(COCCOCCO)o2)cc1)C(=O)NO [Compound 21, N-((2S,3R)-3-hydroxy-1-(hydroxyamino)-1-oxobutan-2-yl)-4-((5-((2-(2-hydroxyethoxy)ethoxy)methyl)furan-2-yl)buta-1,3-diynyl)benzamide]				
						4 (≈ 7.87 µM)	> 16	0.5 (≈ 0.983 µM)	2 (≈ 3.93 µM)	C[C@@H](O)[C@H](NC(=O)c1ccc(C#CC#Cc2ccc(CNCCCN3CCOCC3)o2)cc1)C(=O)NO [Compound 22, N-((2S,3R)-3-hydroxy-1-(hydroxyamino)-1-oxobutan-2-yl)-4-((5-((3-morpholinopropylamino)methyl)furan-2-yl)buta-1,3-diynyl)benzamide]				
78.5 ± 5.5	17.6 ± 4.22	158 ± 45.6	0.28 ± 0.08	402 ± 21.6	426 ± 28.5	1 (≈ 2.17 µM)				Cn1nc(CO)cc1-c1ccc(C#Cc2ccc(C(=O)N[C@H](C(=O)NO)C(C)(C)N)cc2)cc1 [Compound 37, (S)—N-(3-amino-1-(hydroxyamino)-3-methyl-1-oxobutan-2-yl)-4-((4-(3-(hydroxymethyl)-1-methyl-1H-pyrazol-5-yl)phenyl)ethynyl)benzamide]				
84.3 ± 9.17	2.16 ± 0.30	18 ± 0.6	2.35 ± 0.07	396 ± 41	398 ± 41	0.5 (≈ 1.03 µM)	4 (≈ 8.24 µM)			C[C@@H](O)[C@H](NC(=O)c1ccc(C#CC#Cc2ccc(CNCCOCCO)s2)cc1)C(=O)NO [Compound 42, N-((2S,3R)-3-hydroxy-1-(hydroxyamino)-1-oxobutan-2-yl)-4-((5-((2-(2-hydroxyethoxy)ethylamino)methyl)thienyl-2-yl)buta-1,3-diynyl)benzamide]				
36.5 ± 3.67	0.88 ± 0.07	16.8 ± 0.6	2.48 ± 0.06	919 ± 100	921 ± 100	1 (≈ 2.14 µM)	4 (≈ 8.56 µM)			C[C@@H](O)[C@H](NC(=O)c1ccc(C#CC#Cc2ccc(CN3CCOCC3)s2)cc1)C(=O)NO [Compound 43, N-((2S,3R)-3-hydroxy-1-(hydroxyamino)-1-oxobutan-2-yl)-4-((5-(morpholinomethyl)thienyl-2-yl)buta-1,3-diynyl)benzamide]				
										CN(C)[C@@H]1C(O)=C(C(N)=O)C(=O)[C@@]2(O)C(O)=C3C(=O)c4c(O)cccc4[C@@](C)(O)[C@H]3C[C@@H]12 [Tetracycline]	32 (≈ 72 µM)	64 (≈ 144 µM)		
										Gentamicin			4	64
										Polymyxin E sulphate			16	32

Compound	Cl_obs [1] [mL/min/kg]	Vz_obs [1] [L/kg]	t1/2z [1] [min]	λ_z [1] [h⁻¹]	AUC(0-t) [1] [ng·h/mL]	AUC(0-inf) [1] [ng·h/mL]	MIC50 (Pseudomonas aeruginosa) [µg/mL]	MIC90 (Pseudomonas aeruginosa) [µg/mL]	MIC50 (Escherichia coli; read-out: MIC50) [µg/mL]	MIC90 (Escherichia coli; read-out: MIC90) [µg/mL]	MIC50 [2] [µg/mL]	MIC90 [2] [µg/mL]	MIC50 Value [2] [µg/mL]	MIC90 Value [2] [µg/mL]
C[C@@H](O)[C@H]1C(=O)N2C(C(=O)O)=C(SCCN=CN)C[C@H]12 [Imipenem, reference compound]							2 (≈ 6.68 µM)	16 (≈ 53.4 µM)			0.125 (≈ 0.418 µM)	4 (≈ 13.4 µM)		

— patent US11498909B2, “Compound acting as antibiotics” (KBP BIOSCIENCES CO., LTD., priority 2018, dated 2022)
